Source: US6623740B1, “Structurally modified peptides that are resistant to peptidase degradation” (Ludwig Institute for Cancer Research, priority 1997, dated 2003)

Procedure: At different times, an aliquot measuring about 150 μl was removed and the enzymatic reaction stopped by addition of 15 μl trifluoroacetic acid (TFA). Precipitated serum proteins were pelleted by centrifugation at 15000 rpm for 10 min at 4° C. The supernatants were frozen and preserved at −20° C. until analysis.
The peptide and its degradation product(s) were then separated by reverse phase chromatography (RP-HPLC). Peaks corresponding to the different products were quantified. HPLC analysis of the various peptide samples collected at different incubation times was conducted. As well, peptide degradation kinetics including the half-life of the various peptide samples was recorded together with any increase in the degradation products of the peptide samples under investigation.
The following HPLC conditions were used:
i) column: 5-μm 4.6 mm×25 cm, C18 (Beckman),
ii) gradient: 4-20% CH3CN (0.08% TFA in H2O, 0.08% TFA in CH3CN), 0-30 min,
iii) UV detection: 200-300 nm using a Waters 996 photodiode array detector,
iv) chromatograms obtained at 225 and 280 nm were also derived.

C[C@H](NC(=O)[C@@H](N)CCC(=O)O)C(=O)N[C@@H](CC(=O)O)C(=O)N1CCC[C@H]1C(=O)N[C@H](C(=O)NCC(=O)N[C@@H](Cc1c[nH]cn1)C(=O)N[C@@H](CO)C(=O)N[C@@H](Cc1ccc(O)cc1)C(=O)O)[C@@H](C)O [MZ2-E]
t ½ of degradation by peptidase present in human serum: ½
